According to US11389382B2, “Biphase chemical peel” (L'OREAL, priority 2019, dated 2022):

What was measured:
[1] = acute oral toxicity, mutagenicity, skin irritation, skin sensitization, phototoxicity; cited from earlier work
forearm skin = assay: In vivo tape stripping, protein removed, Micro BCA assay (efficacy of desquamation); design: species or system human; settings: tape stripping of forearm after 15 min treatment; 4 tape strippings per region, average of 3 regions, single person
Protocol: Example 5: In Vivo Tape Stripping Protein Removed Using a Micro […] Assay to Characterize the Efficacy of Desquamation
Studies were conducted with each of the exemplified inventive and comparative compositions, to evaluate effect of the compositions on live skin tape stripping samples. Inventive 1 and Inventive 2 compositions and the Comparative composition together with Jessner peel, glycolic acid alone and isopropyl myristate controls were evaluated according to the following procedure. Tape strips of skin areas tested with each composition were obtained, with 4 tape strippings per region; Average of 3 regions; Experiment done on single person rinse the forearm with distilled water and dry it for 3 minutes; Wipe with the peel test composition saturated cotton pads on the designated area and dry it for 15 min; Rinse the forearm with the water and dry the moisture by placing a tissue and patting the tissue. Air dry it for 3 min; Perform the tape stripping—(1) put the tape on, (2) place the metal plate on top of the tape, and (3) put weight (2 kg) for 5 seconds.—3 tapes (3 different regions of the skin)/peel test composition×4 tape stripping; Each tape (1.4 cm) was inserted in a 2 mL Eppendorf tube and 500 uL of PBS was added to each tube; Shaking condition ([…]) for 2 hours @ room temperature; Sonication for 20 min in ice water; Micro BCA assay.

stratum corneum samples = assay: In vitro stratum corneum comparison of ΔT using differential scanning calorimetry (lipid disorganization); settings: DSC 20° C. to 120° C. at 5° C./min; 0.1 g/sample on SC surface for 15 min in 75% RH
Protocol: In Vitro Stratum Corneum Comparison of ΔT using differential scanning calorimetry (DSC) to characterize the stability of a protein or other biomolecule directly in its native form. It does this by measuring the heat change associated with the molecule's thermal denaturation when heated at a constant rate.
Studies were conducted with each of the exemplified inventive and comparative compositions, to evaluate effect of the compositions on the stratum corneum. Inventive 1 and Inventive 2 compositions and the Comparative composition together with Jessner peel, glycolic acid alone and isopropyl myristate controls were evaluated on SC samples according to the following procedure. Stratum corneum samples were equilibrated at 75% RH overnight. Inventive and Comparative Compositions and control treatments applied on SC surface (0.1 g/sample) for 15 min in 75% RH. The SC surface was wiped clean and rinsed with DI water. Allow to dry in 75% RH overnight. The DSC profile was measured from 20° C. to 120° C. at 5° C./min.

SMILES	adverse effects in basic toxicological tests [1]	Protein Content (protein removed) (forearm skin)	ΔT (measurement of lipid disorganization) (stratum corneum samples)
CC(c1ccccc1)c1ccc(O)cc1O (centres unmarked) [Phenylethyl resorcinol]	not shown adverse effects		
CCCCCCCCCCCCCC(=O)OC(C)C [Isopropyl myristate control, isopropyl myristate]		2.4 ± 0.88 μg/cm^2	6.40 ± 0.1
O=C(O)CO [Glycolic Acid Control, glycolic acid]		1.65 ± 0.02 μg/cm^2	5.94 ± 0.41
